According to US11633392B2 (priority 2016, dated 2023):
Structures can show the parent of a compound that is named as a salt. Where two headings read alike, the source gives them in different places. Marks after values point to notes of the source that are not given here.

Tests used:
human opioid κ receptor = molecular target: T1, human opioid κ receptor (Homo sapiens, UniProt P41145); assay: Opioid receptor function test (Lance Ultra cAMP Kit), κ receptor; format: cell-based; details: for κ receptor reaction rate at the maximum concentration (reference value, marked *): maximum reaction not reached, maximum concentration 10 μM, U-69593 = 100%; for EC50: CHO cells expressing human κ receptor, cAMP, in the presence of forskolin
T1 construct: host or cells: CHO cells
Protocol: (§1) Opioid Receptor Function Test
(§2) The functional activities of the compounds provided by the present invention on the μ, δ, and κ opioid receptors were investigated.
(§3) The test was performed by using Lance Ultra cAMP Kit (PerkinElmer) according to a method predetermined for the kit. In the evaluation of the agonistic activity, CHO cells expressing each of the human opioid receptors (δ, μ, and κ, accession numbers and catalog numbers are mentioned below) and 10 μM of each test compound were reacted for 30 minutes in an assay buffer (1× HBSS, […], pH 7.4, […] (isobutylmethylxanthine), 7.5% BSA) in the presence of forskolin. Subsequently, the cAMP detection reagent included in the kit was added, and 1 hour afterward, time-resolved fluorescence measurement was performed by using the EnVision plate reader (PerkinElmer). The test compounds and the control drugs (δ: SNC80, μ: DAMGO, κ: U-69593) were evaluated in a concentration range of 10^−12 to 10^−5 M, a dose-response curve of each test compound was obtained from the fluorescence values at 665 nm, and EC50 value and the Emax value were calculated. The Emax value was calculated as a ratio of the maximum reaction of the test compound to the maximum reaction of each control drug, which is taken as 100%.
(§4) • δ: Catalog No. CT4607, Accession No. NM_000911.2 • μ: Catalog No. CT4605, Accession No. NM_000914 • κ: Catalog No. CT4606, Accession No. NM_000912 (ChanTest Corporation)

human opioid δ receptor = molecular target: T2, human opioid δ receptor (Homo sapiens, UniProt P41143); assay: Opioid receptor function test (Lance Ultra cAMP Kit), δ receptor; format: cell-based; details: for EC50: CHO cells expressing human δ receptor, cAMP, in the presence of forskolin; for Emax / δ receptor Emax: ratio to maximum reaction of control drug SNC80 taken as 100%
T2 construct: host or cells: CHO cells
Protocol: as §1, §2, §3, §4

human opioid μ receptor = molecular target: T3, human opioid μ receptor (Homo sapiens, UniProt P35372); assay: Opioid receptor function test (Lance Ultra cAMP Kit), μ receptor; format: cell-based; details: for EC50: read-out: μ receptor EC50 value
T3 construct: host or cells: CHO cells
Protocol: as §1, §2, §3, §4

[1] = system: olfactory bulbectomized (OBX) rat; assay: Hyperemotional reaction inhibition test using olfactory bulbectomized (OBX) rat; format: in vivo; details: 10 mg/kg s.c. once a day, on the day 14 of the administration period
Text: Hyperemotional Reaction Inhibition Test Using Olfactory Bulbectomized (OBX) Rat
According to the method of Saitoh et al. (Saitoh A, Yamada M, Yamada M, Takahashi K, Yamaguchi K, Murasawa H, Nakatani A, Tatsumi Y, Hirose N, and Kamei J: Antidepressant-like effects of the delta-opioid receptor agonist SNC80 ((+)-4-[(alphaR)-alpha-[(2S,5R)-2,5-dimethyl-4-(2-propenyl)-1-piperazinyl]-(3-methoxyphenyl)methyl]-N,N-diethylbenzamide) in an olfactory bulbectomized rat model, Brain Res., 2008, 1208:160-169), OBX rats were prepared by extracting the rat olfactory bulbs, and then breeding the rats in an isolated circumstance. Hyperemotional reaction was evaluated on the day 14 after the surgical operation and before the division into groups, and 2 hours after the administration on the days 1, 4, 7, 10, and 14 of the administration period according to the hyperemotional reaction evaluation criteria prepared by Gomita et al. (Gomita et al., Behavioral pharmacological and electroencephalographical studies of 7-chloro-1-methyl-5-phenyl-1H-1,5-benzodiazepine-2,4-(3H,5H:)-dione (Clobazam), Folia Pharmacologica Japonica, 82, 267 (1983)). The drug was subcutaneously administered once a day continuously over 14 days. As a positive control drug, fluoxetine, which is a selective serotonin reuptake inhibitor (SSRI), was used. As the solvent, a 1% cyclodextrin (CD) was used.

[2] = CHO cells expressing human μ receptor, cAMP, in the presence of forskolin
[3] = ratio to maximum reaction of control drug DAMGO taken as 100%
[4] = ratio to maximum reaction of control drug U-69593 taken as 100%

T3 sequence (P35372 whole entry): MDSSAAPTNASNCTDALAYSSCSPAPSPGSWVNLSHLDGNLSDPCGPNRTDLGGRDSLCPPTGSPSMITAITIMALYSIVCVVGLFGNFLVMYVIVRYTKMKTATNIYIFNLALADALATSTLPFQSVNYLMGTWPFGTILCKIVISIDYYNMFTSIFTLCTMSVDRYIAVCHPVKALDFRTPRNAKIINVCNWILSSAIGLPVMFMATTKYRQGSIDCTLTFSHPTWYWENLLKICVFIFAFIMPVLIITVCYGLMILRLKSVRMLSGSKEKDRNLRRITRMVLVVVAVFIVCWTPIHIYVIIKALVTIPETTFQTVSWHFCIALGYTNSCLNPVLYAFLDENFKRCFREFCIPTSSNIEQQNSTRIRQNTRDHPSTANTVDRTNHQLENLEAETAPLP
T1 sequence (P41145 whole entry): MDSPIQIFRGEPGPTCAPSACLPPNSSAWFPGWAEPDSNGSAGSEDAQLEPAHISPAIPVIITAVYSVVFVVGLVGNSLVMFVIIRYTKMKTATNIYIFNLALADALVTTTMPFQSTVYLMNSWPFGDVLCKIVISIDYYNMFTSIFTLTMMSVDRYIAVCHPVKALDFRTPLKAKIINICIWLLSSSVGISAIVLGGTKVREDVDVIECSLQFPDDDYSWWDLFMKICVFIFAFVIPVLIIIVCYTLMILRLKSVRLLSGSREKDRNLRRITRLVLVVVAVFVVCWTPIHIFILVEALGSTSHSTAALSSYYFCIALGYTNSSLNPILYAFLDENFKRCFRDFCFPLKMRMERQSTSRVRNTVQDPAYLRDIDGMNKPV
T2 sequence (P41143 whole entry): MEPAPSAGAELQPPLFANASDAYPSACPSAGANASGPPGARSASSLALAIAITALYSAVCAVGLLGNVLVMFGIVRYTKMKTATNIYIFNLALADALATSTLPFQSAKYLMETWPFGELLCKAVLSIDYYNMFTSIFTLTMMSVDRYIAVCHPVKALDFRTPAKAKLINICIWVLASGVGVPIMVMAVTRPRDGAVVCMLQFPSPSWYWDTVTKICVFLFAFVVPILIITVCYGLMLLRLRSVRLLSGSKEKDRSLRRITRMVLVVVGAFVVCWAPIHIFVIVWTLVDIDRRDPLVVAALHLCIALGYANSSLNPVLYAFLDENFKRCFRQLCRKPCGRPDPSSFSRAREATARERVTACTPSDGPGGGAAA

| SMILES | κ receptor reaction rate at the maximum concentration (reference value, marked *) (human opioid κ receptor) | EC50 (human opioid δ receptor) | Emax (human opioid δ receptor) | EC50 (human opioid μ receptor; [2]) | Emax (human opioid μ receptor; [3]) | EC50 (human opioid κ receptor) | Emax (human opioid κ receptor; [4]) | other results |
| --- | --- | --- | --- | --- | --- | --- | --- | --- |
| O=C(c1cc(=O)cc[nH]1)N1C[C@H]2C[C@@]34CC[C@@H]1[C@@H]2[C@@]31CCN(CC2CC2)[C@@H]4Cc2ccc(O)cc21 [Example 14, 2-((1S,3aR,5aS,6R,11bR,11cS)-14-(cyclopropylmethyl)-10-hydroxy-2,3,3a,4,5,6,7,11c-octahydro-1H-6,11b-(epiminoethano)-1,5a-methanonaphtho[1,2-e]indole-3-carbonyl)pyridin-4(1H)-one] | −6.7* % | < 3 nM | 95% | > 1 nM | 8.1% | – | – | – |
| O=C(c1ccc(=O)[nH]c1)N1C[C@H]2C[C@@]34CC[C@@H]1[C@@H]2[C@@]31CCN(CC2CC2)[C@@H]4Cc2ccc(O)cc21 [Example 5, 5-((1S,3aR,5aS,6R,11bR,11cS)-14-(cyclopropylmethyl)-10-hydroxy-2,3,3a,4,5,6,7,11c-octahydro-1H-6,11b-(epiminoethano)-1,5a-methanonaphtho[1,2-e]indole-3-carbonyl)pyridin-2(1H)-one] | – | < 3 nM | 81% | > 1 nM | 9.7% | < 1 nM | 20% | – |
| CCn1cc(C(=O)N2C[C@H]3C[C@@]45CC[C@@H]2[C@@H]3[C@@]42CCN(CC3CC3)[C@@H]5Cc3ccc(O)cc32)ccc1=O [Example 28, 5-((1S,3aR,5aS,6R,11bR,11cS)-14-(cyclopropylmethyl)-10-hydroxy-2,3,3a,4,5,6,7,11c-octahydro-1H-6,11b-(epiminoethano)-1,5a-methanonaphtho[1,2-e]indole-3-carbonyl)-1-ethylpyridin-2(1H)-one] | – | < 3 nM | 92% | > 1 nM | 16% | < 1 nM | 18% | – |
| Cn1cccc(C(=O)N2C[C@H]3C[C@@]45CC[C@@H]2[C@@H]3[C@@]42CCN(CC3CC3)[C@@H]5Cc3ccc(O)cc32)c1=O [Example 31, 3-((1S,3aR,5aS,6R,11bR,11cS)-14-(cyclopropylmethyl)-10-hydroxy-2,3,3a,4,5,6,7,11c-octahydro-1H-6,11b-(epiminoethano)-1,5a-methanonaphtho[1,2-e]indole-3-carbonyl)-1-methylpyridin-2(1H)-one hydrochloride] | – | – | – | – | – | – | – | δ receptor Emax (human opioid δ receptor): 97%; μ receptor Emax (human opioid μ receptor): 7.7%; EC50 (human opioid μ receptor): > 10 nM |
| O=C(c1cc(=O)cco1)N1C[C@H]2C[C@@]34CC[C@@H]1[C@@H]2[C@@]31CCN(CC2CC2)[C@@H]4Cc2ccc(O)cc21 [Example 19, 2-((1S,3aR,5aS,6R,11bR,11cS)-14-(cyclopropylmethyl)-10-hydroxy-2,3,3a,4,5,6,7,11c-octahydro-1H-6,11b-(epiminoethano)-1,5a-methanonaphtho[1,2-e]indole-3-carbonyl)-4H-pyran-4-one] | 0.6* % | < 3 nM | 91% | > 1 nM | 19% | – | – | – |
| O=C(c1ccc[n+]([O-])c1)N1C[C@H]2C[C@@]34CC[C@@H]1[C@@H]2[C@@]31CCN(CC2CC2)[C@@H]4Cc2ccc(O)cc21 [Example 4, 3-((1S,3aR,5aS,6R,11bR,11cS)-14-(cyclopropylmethyl)-10-hydroxy-2,3,3a,4,5,6,7,11c-octahydro-1H-6,11b-(epiminoethano)-1,5a-methanonaphtho[1,2-e]indole-3-carbonyl)pyridine 1-oxide] | – | < 3 nM | 86% | – | – | > 10 nM | 27% | μ receptor reaction rate at the maximum concentration (reference value, marked *) (human opioid μ receptor; maximum reaction not reached, maximum concentration 10 μM, DAMGO = 100%): 5.5* % |
| CNCCC(Oc1ccc(C(F)(F)F)cc1)c1ccccc1 (centres unmarked) [fluoxetine, reference compound] | – | – | – | – | – | – | – | hyperemotional reactions of the OBX rats compared with the solvent administration group [1]: significantly reduced |
| Cn1cccc(C(=O)N2C[C@H]3C[C@@]45CC[C@@H]2[C@@H]3[C@@]42CCN(CC3CC3)[C@@H]5Cc3ccc(O)cc32)c1=O [Example 6, 3-((1S,3aR,5aS,6R,11bR,11cS)-14-(cyclopropylmethyl)-10-hydroxy-2,3,3a,4,5,6,7,11c-octahydro-1H-6,11b-(epiminoethano)-1,5a-methanonaphtho[1,2-e]indole-3-carbonyl)-1-methylpyridin-2(1H)-one] | 3.2* % | < 3 nM | 97% | > 10 nM | 7.7% | – | – | – |
| Cc1ccc(C(=O)N2C[C@H]3C[C@@]45CC[C@@H]2[C@@H]3[C@@]42CCN(CC3CC3)[C@@H]5Cc3ccc(O)cc32)c(=O)[nH]1 [Example 32, 3-((1S,3aR,5aS,6R,11bR,11cS)-14-(cyclopropylmethyl)-10-hydroxy-2,3,3a,4,5,6,7,11c-octahydro-1H-6,11b-(epiminoethano)-1,5a-methanonaphtho[1,2-e]indole-3-carbonyl)-6-methylpyridin-2(1H)-one hydrochloride] | – | – | – | – | – | – | – | κ receptor Emax (human opioid κ receptor; [4]): 21%; δ receptor Emax (human opioid δ receptor): 70%; μ receptor Emax (human opioid μ receptor; [3]): 8.6% |
| Cc1ccc(C(=O)N2C[C@H]3C[C@@]45CC[C@@H]2[C@@H]3[C@@]42CCN(CC3CC3)[C@@H]5Cc3ccc(O)cc32)c(=O)[nH]1 [Example 8, 3-((1S,3aR,5aS,6R,11bR,11cS)-14-(cyclopropylmethyl)-10-hydroxy-2,3,3a,4,5,6,7,11c-octahydro-1H-6,11b-(epiminoethano)-1,5a-methanonaphtho[1,2-e]indole-3-carbonyl)-6-methylpyridin-2(1H)-one] | – | < 3 nM | 70% | > 1 nM | 8.6% | < 1 nM | 21% | – |
| O=C(c1cc[nH]c(=O)c1)N1C[C@H]2C[C@@]34CC[C@@H]1[C@@H]2[C@@]31CCN(CC2CC2)[C@@H]4Cc2ccc(O)cc21 [Example 11, 4-((1S,3aR,5aS,6R,11bR,11cS)-14-(cyclopropylmethyl)-10-hydroxy-2,3,3a,4,5,6,7,11c-octahydro-1H-6,11b-(epiminoethano)-1,5a-methanonaphtho[1,2-e]indole-3-carbonyl)pyridin-2(1H)-one] | −2.5* % | < 3 nM | 76% | > 1 nM | 11% | – | – | – |
